Tested on: rat brain membrane K channels (primarily Kv1.2)
Type: binding

Row | Structure (SMILES) | Equipotent Molar Ratio (Analog IC50 /ShK IC50) | Free Energy Differ. of Binding ΔF | IC50 Ratio | binding affinity for rat brain K channels relative to wild-type ShK toxin, in words | ΔF | Difference of Free Energy of Binding | increase in relative free energy of binding
1 | CC[C@H](C)[C@@H]1NC(=O)[C@@H](NC(=O)[C@H](CO)NC(=O)[C@@H](N)CCCNC(=N)N)CSSC[C@@H](C(=O)O)NC(=O)[C@H]([C@@H](C)O)NC(=O)CNC(=O)[C@@H]2CSSC[C@@H]3NC(=O)[C@H](CCC(N)=O)NC(=O)[C@H](Cc4ccccc4)NC(=O)[C@H](C)NC(=O)[C@H]([C@@H](C)O)NC(=O)[C@H](CSSC[C@H](NC(=O)[C@H](Cc4ccccc4)NC(=O)[C@H](CO)NC(=O)[C@H](CC(C)C)NC(=O)[C@H](CCCNC(=N)N)NC(=O)[C@H](Cc4ccc(O)cc4)NC(=O)[C@H](CCCCN)NC(=O)[C@H](CCSC)NC(=O)[C@H](CO)NC(=O)[C@H](CCCCN)NC(=O)[C@H](CCCCN)NC3=O)C(=O)N[C@@H](CCCNC(=N)N)C(=O)N[C@@H](CCCCN)C(=O)N[C@@H]([C@@H](C)O)C(=O)N2)NC(=O)[C@H](CCCNC(=N)N)NC(=O)[C@H](CO)NC(=O)[C@H](CCCCN)NC(=O)[C@@H]2CCCN2C(=O)[C@H]([C@@H](C)CC)NC(=O)[C@H]([C@@H](C)O)NC(=O)[C@H](CC(=O)O)NC1=O [H19K] | 2.6 | 0.56 | 2.6 | slightly reduced IC50 ratio | 0.56 | – | –
2 | CC[C@H](C)[C@@H]1NC(=O)[C@@H](NC(=O)[C@H](CO)NC(=O)[C@@H](N)CCCNC(=N)N)CSSC[C@@H](C(=O)O)NC(=O)[C@H]([C@@H](C)O)NC(=O)CNC(=O)[C@@H]2CSSC[C@@H]3NC(=O)[C@H](CCC(N)=O)NC(=O)[C@H](Cc4ccccc4)NC(=O)[C@H](C)NC(=O)[C@H]([C@@H](C)O)NC(=O)[C@H](CSSC[C@H](NC(=O)[C@H](Cc4ccccc4)NC(=O)[C@H](CO)NC(=O)[C@H](CC(C)C)NC(=O)[C@H](CCCNC(=N)N)NC(=O)[C@H](Cc4ccc(O)cc4)NC(=O)[C@H](CCCCN)NC(=O)[C@H](CCSC)NC(=O)[C@H](CO)NC(=O)[C@H](Cc4c[nH]cn4)NC(=O)[C@H](CCCCN)NC3=O)C(=O)N[C@@H](CCCNC(=N)N)C(=O)N[C@@H](CCCCN)C(=O)N[C@@H]([C@@H](C)O)C(=O)N2)NC(=O)[C@H](CCCNC(=N)N)NC(=O)[C@H](CO)NC(=O)[C@H](CCCCN)NC(=O)[C@@H]2CCCN2C(=O)[C@H](C)NC(=O)[C@H]([C@@H](C)O)NC(=O)[C@H](CC(=O)O)NC1=O [I7A] | – | – | 5.2 | – | – | 0.96 | approximately 1 kcal/mol
3 | CC[C@H](C)[C@@H]1NC(=O)[C@@H](NC(=O)[C@H](CO)NC(=O)[C@@H](N)CCCNC(=N)N)CSSC[C@@H](C(=O)O)NC(=O)[C@H]([C@@H](C)O)NC(=O)CNC(=O)[C@@H]2CSSC[C@@H]3NC(=O)[C@H](CCC(N)=O)NC(=O)[C@H](Cc4ccccc4)NC(=O)[C@H](C)NC(=O)[C@H]([C@@H](C)O)NC(=O)[C@H](CSSC[C@H](NC(=O)[C@H](Cc4ccccc4)NC(=O)[C@H](CO)NC(=O)[C@H](CC(C)C)NC(=O)[C@H](CCCNC(=N)N)NC(=O)[C@H](Cc4ccc(O)cc4)NC(=O)[C@H](CCCCN)NC(=O)[C@H](CCSC)NC(=O)[C@H](CO)NC(=O)[C@H](Cc4c[nH]cn4)NC(=O)[C@H](CCCCN)NC3=O)C(=O)N[C@@H](CCCNC(=N)N)C(=O)N[C@@H](CCCCN)C(=O)N[C@@H]([C@@H](C)O)C(=O)N2)NC(=O)[C@H](CCCNC(=N)N)NC(=O)[C@H](CO)NC(=O)[C@H](C)NC(=O)[C@@H]2CCCN2C(=O)[C@H]([C@@H](C)CC)NC(=O)[C@H]([C@@H](C)O)NC(=O)[C@H](CC(=O)O)NC1=O [K9A] | – | – | 1.3 | – | – | 0.15 | –

— patent publication US6077680A (The University of Florida, dated 2000)
